Test results as given in patent US9150592B2, “Heterocyclic nuclear hormone receptor modulators” (AbbVie Inc., priority 2012, dated 2015).

Legend:
[1] = biological target: T1, Glucocorticoid Receptor (GR) (Homo sapiens, UniProt P04150); assay: GR Fluorescence Polarization Assay (PolarScreen Glucocorticoid Receptor Competitor Assay, Red); settings: IC50 class ranges, read-out: GR binding
T1 construct: purchased Invitrogen P2893
T1 sequence (P04150 1-777): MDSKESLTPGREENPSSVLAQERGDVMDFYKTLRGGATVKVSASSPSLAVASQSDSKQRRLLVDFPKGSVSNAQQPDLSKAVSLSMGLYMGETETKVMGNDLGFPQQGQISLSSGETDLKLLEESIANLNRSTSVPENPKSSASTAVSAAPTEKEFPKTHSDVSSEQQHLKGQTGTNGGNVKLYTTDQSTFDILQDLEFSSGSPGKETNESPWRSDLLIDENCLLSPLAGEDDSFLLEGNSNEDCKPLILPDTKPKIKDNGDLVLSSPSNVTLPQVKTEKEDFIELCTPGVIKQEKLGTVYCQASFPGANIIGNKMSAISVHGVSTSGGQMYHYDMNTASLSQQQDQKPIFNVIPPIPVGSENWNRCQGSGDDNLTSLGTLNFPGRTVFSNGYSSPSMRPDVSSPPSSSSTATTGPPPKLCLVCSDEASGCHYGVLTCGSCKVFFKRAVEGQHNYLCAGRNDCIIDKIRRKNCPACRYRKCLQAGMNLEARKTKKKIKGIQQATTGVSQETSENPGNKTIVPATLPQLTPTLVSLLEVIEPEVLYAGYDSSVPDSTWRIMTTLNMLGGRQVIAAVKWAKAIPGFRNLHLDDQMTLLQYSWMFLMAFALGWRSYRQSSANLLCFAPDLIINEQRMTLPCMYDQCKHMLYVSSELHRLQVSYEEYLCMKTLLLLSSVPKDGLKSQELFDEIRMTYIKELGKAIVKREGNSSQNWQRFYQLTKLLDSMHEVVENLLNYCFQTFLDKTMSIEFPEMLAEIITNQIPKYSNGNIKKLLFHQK
Outline: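 Competitive fluorescence-polarization assay using a red fluorescent glucocorticoid tracer with human GR in kit buffer. Compounds serially diluted 1:4 in DMSO, incubated with tracer and GR overnight at 4° C, then polarization read.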

[2] = system: IL-6 in A549 cells stimulated with IL-1β; assay: A549 Cell Assay to Measure Inflammation Markers (inhibition of IL-1β-induced IL-6); format: cell-based; settings: Homo sapiens, intrinsic activity, Emax class ranges
Procedure: A549 Cell Assay to Measure Inflammation Markers
Further dilution (1:250) of compound was made into assay medium and 50 μL/well diluted drug or DMSO/media control was applied to cells. After a 1 h pre-incubation in a temperature, CO2, and humidity controlled incubator, set to 37° C., 50 μL/well of 4 ng/mL IL-1β diluted in assay media, was applied to cultures. Assay plates, with a final volume of 200 μL/well and final concentrations of 0.1% DMSO and 1 ng/mL IL-1β were returned to incubator for a […] incubation period. Next, plates were spun at 183 g (1000 rpm in Beckman/Coulter Allegra 6KR centrifuge) for 10 min. Cell-free supernatant (150 μL/well) was collected and IL-6 was measured by MSD kit, following protocol of manufacturer, and using MSD SECTOR Imager 6000 instrument. […] Results were represented as IC50 and Emax values.

[3] = A549, A549 Cell Assay to Measure Inflammation Markers

SMILES | IC50 [1] [nM] | Emax [2, 3] [%] | Emax ([2]; A549 Cell Assay to Measure Inflammation Markers) [%]
Cc1cc(F)ccc1C1SC(C)(C)CNc2c1c(C1CC1)nn2C (stereo not drawn) [D.56] | < 100 | < 50 | 
Cc1cc(C#N)ccc1[C@@H]1S[C@@H](C)CNc2c1c(C1CC1)nn2C (racemic) [G.4] | < 100 | < 50 | 
Cc1cc(Br)ccc1C1SCC(C#N)Nc2c1c(-c1ccccn1)nn2C (racemic) | < 100 | > 60 | 
CCn1nc(-c2ccccn2)c2c1N[C@@H](C)CS[C@H]2c1ccc(C(N)=O)cc1C (single isomer, unassigned) [M.48, 4-(1-ethyl-7-methyl-3-(pyridin-2-yl)-4,6,7,8-tetrahydro-1H-pyrazolo[3,4-e][1,4]thiazepin-4-yl)-3-methylbenzamide] | < 100 | > 50 | 
CCn1nc(-c2ccccn2)c2c1NCCSC2c1ccc(C(=O)Nc2cc(C)nn2C)cc1C (stereo not drawn) [S.2] | < 100 | > 70 | 
CCn1nc(-c2ccccn2)c2c1NC(=O)CCC2c1ccc(C(=O)Nc2cccnc2C)cc1C (stereo not drawn) [O.2] | 100 to 1000 | > 70 | 
COc1cc(Cl)ccc1C1SC(C)(C)CNc2c1c(C1CC1)nn2C (stereo not drawn) [D.47] | 100 to 1000 | < 50 | 
Cc1cc(C(=O)Nc2cccnc2C)ccc1C1SC(C)(C)CNc2c1c(C)nn2C (stereo not drawn) [H.5] | 1000 to 10000 | < 50 | 
COC(=O)c1ccc(C2SCCNc3c2c(-c2ccccn2)nn3C)c(Cl)c1 (stereo not drawn) [E.1, methyl 3-chloro-4-[1-methyl-3-(2-pyridyl)-4,6,7,8-tetrahydropyrazolo[3,4-e][1,4]thiazepin-4-yl]benzoate] | < 100 | < 50 | 
CCn1nc(-c2ccccn2)c2c1NCCSC2c1ccc(C(=O)Nc2cccnc2Cl)cc1C (stereo not drawn) [S.10] | < 100 | > 70 | 
Cc1cc(Cl)ccc1C1SCCNc2c1c(-c1cc(Cl)ccn1)nn2C (stereo not drawn) [D.24] | < 100 | < 50 | 
Cc1cc(C#N)ccc1C1SCC(C)Nc2c1c(-c1ccccn1)nn2C (stereo not drawn) [G.7] | < 100 | > 70 | 
CCn1nc(-c2ccccn2)c2c1N[C@H](C)CS[C@H]2c1ccc(CCCO)cc1C (single isomer, unassigned) [M.35, 3-(4-(1-ethyl-7-methyl-3-(pyridin-2-yl)-4,6,7,8-tetrahydro-1H-pyrazolo[3,4-e][1,4]thiazepin-4-yl)-3-methylphenyl)propan-1-ol] | < 100 | > 70 | 
Cc1cc(C(=O)Nc2cccnc2C)ccc1[C@H]1CC[C@](O)(C(F)(F)F)Cc2c1c(-c1ccccn1)nn2C (racemic) | < 100 | > 70 | 
Cn1nc(-c2ccccn2)c2c1NCC(C)(C)SC2c1ccc(Cl)cc1Cl (stereo not drawn) [D.32] | < 100 | < 50 | 
Cc1cc(Cl)ccc1C1SCCNc2c1c(C)nn2C (stereo not drawn) [D.59] | 100 to 1000 | < 50 | 
Cn1nc(C(C)(C)C)c2c1NCCSC2c1ccc(Cl)cc1Cl (stereo not drawn) [D.85] | 100 to 1000 | < 50 | 
CCn1nc(-c2ccccn2)c2c1NCCSC2c1ccc(C(=O)Nc2ccnn2C)cc1C (stereo not drawn) [S.1, 4-(1-ethyl-3-(pyridin-2-yl)-4,6,7,8-tetrahydro-1H-pyrazolo[3,4-e][1,4]thiazepin-4-yl)-3-methyl-N-(1-methyl-1H-pyrazol-5-yl)benzamide] | < 100 | > 70 | 
Cc1nn(C)c2c1C(c1ccc(Cl)cc1Cl)SC(C)(C)CN2C (stereo not drawn) | 100 to 1000 | < 50 | 
Cn1nc(-c2ccccc2)c2c1NCCSC2c1ccc(Cl)cc1Cl (stereo not drawn) [D.83] | < 100 | < 50 | 
Cc1cc(CCCO)ccc1[C@@H]1SC[C@@H](C)Nc2c1c(-c1ccccn1)nn2C (single isomer, unassigned) [M.51, 3-(4-(1,7-dimethyl-3-(pyridin-2-yl)-4,6,7,8-tetrahydro-1H-pyrazolo[3,4-e][1,4]thiazepin-4-yl)-3-methylphenyl)propan-1-ol] | < 100 | < 50 | 
Cc1cc(Cl)ccc1[C@@H]1SC(C)(C)CNc2c1c(C)nn2C (single isomer, unassigned) [M.7] | 1000 to 10000 | < 50 | 
COc1ccc(C)c(C2SC(C)(C)CNc3c2c(C2CC2)nn3C)c1 (stereo not drawn) [D.106] | < 100 | < 50 | 

SMILES | IC50 [1] [nM] | Emax [2, 3] [%] | Emax ([2]; A549 Cell Assay to Measure Inflammation Markers) [%]
Cc1cc(Cl)ccc1[C@@H]1SC(C)(C)CNc2c1c(C1CC1)nn2C | 100 to 1000 | < 50 | 
Cc1nn(C)c2c1C(c1ccc(Cl)cc1Cl)SC1(CCCC1)CN2 (stereo not drawn) [D.65] | < 100 | < 50 | 
Cn1nc(-c2cc(F)cc(F)c2)c2c1NCCSC2c1ccc(Cl)cc1Cl (stereo not drawn) [D.90] | < 100 | < 50 | 
COC(=O)c1ccc(C)c(C2SCCNc3c2c(-c2ccccn2)nn3C)c1 (stereo not drawn) [E.3, methyl 4-methyl-3-[1-methyl-3-(2-pyridyl)-4,6,7,8-tetrahydropyrazolo[3,4-e][1,4]thiazepin-4-yl]benzoate] | > 10000 | < 50 | 
Cn1nc(-c2ccccn2)c2c1NCCSC2c1ccc(Cl)cc1CF (stereo not drawn) [D.39] | < 100 | > 60 | 
Cc1cc(Br)ccc1C1SC(C)CNc2c1c(C1CC1)nn2C (stereo not drawn) [D.51, 4-(4-bromo-2-methyl-phenyl)-3-cyclopropyl-1,6-dimethyl-4,6,7,8-tetrahydropyrazolo[3,4-e][1,4]thiazepine] | 100 to 1000 | < 50 | 
Cc1ccccc1C1SCCNc2c1c(-c1ccccn1)nn2C (stereo not drawn) [D.14] | < 100 | < 50 | 
Cc1cc(Br)ccc1[C@H]1SC[C@H](C(N)=O)Nc2c1c(-c1ccccn1)nn2C (racemic) | 100 to 1000 | < 50 | 
COC(=O)c1ccc(C2SCC(C)Nc3c2c(-c2ccccn2)nn3C)c(C)c1 (stereo not drawn) [E.7] | < 100 | > 50 | 
Cc1ccc(Br)cc1C1SCCNc2c1c(-c1ccccn1)nn2C (stereo not drawn) [D.27, 4-(5-bromo-2-methyl-phenyl)-1-methyl-3-(2-pyridyl)-4,6,7,8-tetrahydropyrazolo[3,4-e][1,4]thiazepine] | < 100 | < 50 | 
Cn1nc(-c2ccccn2)c2c1NCCSC2c1c(Cl)cccc1Cl (stereo not drawn) [D.2] | 1000 to 10000 | < 50 | 
Cc1ccc(C(=O)Nc2cccnc2C)cc1C1SCCNc2c1c(-c1ccccn1)nn2C (stereo not drawn) [F.5] | > 10000 | < 50 | 
Cc1cc(C#N)ccc1[C@@H]1S[C@@H](C)CNc2c1c(C)nn2C [G.2] | 100 to 1000 | < 50 | 
Cn1nc(-c2cccs2)c2c1NCCSC2c1ccc(Cl)cc1Cl (stereo not drawn) [D.101] | < 100 | < 50 | 
Cn1nc(-c2ccccn2)c2c1NCCSC2c1ccc(Cl)cc1C(F)(F)F (stereo not drawn) [D.3] | < 100 | < 50 | 
Cc1ccc(Br)cc1C1SC(C)(C)CNc2c1c(C1CC1)nn2C (stereo not drawn) [D.55, 4-(5-bromo-2-methyl-phenyl)-3-cyclopropyl-1,6,6-trimethyl-7,8-dihydro-4H-pyrazolo[3,4-e][1,4]thiazepine] | < 100 | < 50 | 
Cc1nn(C)c2c1C(c1ccc(Cl)cc1Cl)SC(C)(C)CN2C=O (stereo not drawn) | 1000 to 10000 | < 50 | 
Cc1cc(CCC(C)(C)O)ccc1[C@@H]1SC[C@H](C)Nc2c1c(-c1ccccn1)nn2C (single isomer, unassigned) [M.42, 4-(4-(1,7-dimethyl-3-(pyridin-2-yl)-4,6,7,8-tetrahydro-1H-pyrazolo[3,4-e][1,4]thiazepin-4-yl)-3-methylphenyl)-2-methylbutan-2-ol] | < 100 | > 60 | 
Cc1cc(C(F)(F)F)ccc1C1SC(C)(C)CNc2c1c(C)nn2C (stereo not drawn) [D.61] | < 100 | < 50 | 
Cn1nc(-c2ccccn2)c2c1NC(=O)CSC2c1ccc(Br)cc1Cl (stereo not drawn) [C.2, 4-(4-bromo-2-chloro-phenyl)-1-methyl-3-(2-pyridyl)-4,8-dihydropyrazolo[3,4-e][1,4]thiazepin-7-one] | 100 to 1000 |  | < 50
Cc1ccc(C)c(C2SC(C)(C)CNc3c2c(C2CC2)nn3C)c1 (stereo not drawn) [D.49] | < 100 | < 50 | 
Cc1cc(C(=O)Nc2cccnc2C)sc1C1SCCNc2c1c(-c1ccccn1)nn2C (stereo not drawn) [F.4] | > 10000 | < 50 | 
